# In patent US7105312B2, “Ca2+/calmodulin-dependent protein kinase IV” (Duke University, priority 2001, dated 2006):
# What was measured:
# p38 = p38 activation in neutrophils in response to fMLP or TPA; type: cell-based, mice or humans; details: in response to either fMLP or TPA
# Method: (§1) In isolated peripheral neutrophils from normal mice or humans, the responses of neutrophils to stimulation by the chemotactic peptide, fMLP, or by the phorbol ester, PMA, was evaluated. […] It was known that the […], p38, is required for the respiratory burst that follows neutrophil activation. […] BM neutrophils have been isolated from normal and Camk4−/− mice and p38 activation in response to PMA has been evaluated.
# [1] = test system: isolated peripheral neutrophils; assay: Neutrophil respiratory burst and hydrogen peroxide production after stimulation by fMLP or PMA; type: cell-based; details: isolated peripheral neutrophils from normal mice or humans
# Method: as §1
structure (smiles),measurement,setting,value
COc1ccc(S(=O)(=O)N(CCO)c2ccccc2CN(C)C/C=C/c2ccc(Cl)cc2)cc1 [KN-93],p38 activation,p38,prevented
same,hydrogen peroxide production,[1],completely inhibited
same,respiratory burst,[1],completely inhibited
